Source: patent US20040162263A1, “Pharmaceutical formulations targeting specific regions of the gastrointesinal tract” (priority 2002, published 2004)
Converted amounts (≈) assume the structure as drawn. “And” between values parts separate entries of the source, which are not always exact repeats. Equal entries are not always repeated. Where two headings read alike, the source gives them in different places.

Assays:
[1] = Pharmacokinetics of decitabine in IVAP rabbit model; format: in vivo, rabbits; settings: for bioavailability / AUC(0-inf) / half-life / MRT / TMAX / clearance / Vd / CMAX: rabbit; for MRT: read-out: Mean Residence Time; for clearance: read-out: Clearance (converted); for Vd: read-out: Volume (Vz); for CMAX: read-out: Mean Cmax
Method: Decitabine was administered intravenously to IVAP rabbits (n=3) at three doses: 0.75, 1.5 and 2.5 mg/kg. It was also administered at 2.5mg/kg orally and through previously implanted intestinal and vascular access ports in the portal vein (PV), upper small intestine (USI), lower small intestine (LSI) and colon (IC). All routes received the same simple formulation of raw compound dissolved in cold saline. Care was taken to insure doses were delivered immediately (less than 15 minutes) after dissolving the powder and that the liquid formulation was kept on ice up to the time of administration. Blood samples were taken simultaneously from the median auricular artery and through a port in the portal vein at predetermined time points. Plasma was separated and kept frozen at −70° C. until shipped to Xenobiotic Laboratories for analysis.
Pharmacokinetic parameters were calculated using non-compartmental models with the Winnonlin v3.1 program.

[2] = Physico-chemical properties of decitabine (solubility, stability); format: physicochemical
[3] = plasma, 2.5 mg/kg, 2.5 mg/kg IC
[4] = plasma, 2.5 mg/kg, 2.5 mg/kg LSI
[5] = plasma, 2.5 mg/kg, 2.5 mg/kg USI
[6] = plasma, 2.5 mg/kg, LSI 2.5 mg/kg
[7] = plasma, 2.5 mg/kg, USI 2.5 mg/kg
[8] = plasma, Overall mean of all doses and routes
[9] = plasma, iv, 0.75 mg/kg, 0.75 mg/kg IV
[10] = plasma, iv, 1.5 mg/kg, 1.5 mg/kg IV
[11] = plasma, iv, 2.5 mg/kg, 2.5 mg/kg IV
[12] = plasma, other: portal vein (PV) via implanted access port, 2.5 mg/kg, 2.5 mg/kg PV
[13] = plasma, other: portal vein (PV) via implanted access port, 2.5 mg/kg, PV
[14] = plasma, po, 2.5 mg/kg, 2.5 mg/kg Oral
[15] = plasma, po, 2.5 mg/kg, Oral 2.5 mg/kg

For `Nc1ncn([C@H]2C[C@H](O)[C@@H](CO)O2)c(=O)n1` [decitabine, 5-aza-2′-deoxycytidine], the “Individual systemic Bioavailability” value ([1]; PO 2.5 mg/kg, 2.5 mg/kg) was 28.57% and 38.84%, the “systemic Bioavailability, Mean” value ([1]; PO 2.5 mg/kg, 2.5 mg/kg) was 35.51% and the “Individual systemic Bioavailability” value ([1]; PV 2.5 mg/kg) was 79.63% and 58.11% and 66.02%. The “systemic Bioavailability, Mean” value ([1]; PV 2.5 mg/kg) was 67.92%, the “Individual systemic Bioavailability” value ([1]; USI 2.5 mg/kg) was 84.33% and 72.64% and the “systemic Bioavailability, Mean” value ([1]; USI 2.5 mg/kg) was 73.94%. It also gave a bioavailability ([1]; plasma (systemic), 2.5 mg/kg, IC 2.5 mg/kg, read-out: systemic Bioavailability, Mean) of 34.3%, a bioavailability ([1]; plasma (systemic), 2.5 mg/kg, LSI 2.5 mg/kg, read-out: Individual systemic Bioavailability) of 55% and a bioavailability ([1]; plasma (systemic), 2.5 mg/kg, LSI 2.5 mg/kg, read-out: systemic Bioavailability, Mean) of 50.4%. The bioavailability ([1]; plasma (systemic), 2.5 mg/kg, USI 2.5 mg/kg, read-out: Individual systemic Bioavailability) was 64.8%, the bioavailability ([1]; plasma (systemic), po, 2.5 mg/kg, PO 2.5 mg/kg, read-out: Individual systemic Bioavailability) was 39.1% and the AUC(0-inf) ([1]; plasma (systemic, median auricular artery), 2.5 mg/kg, USI 2.5 mg/kg, read-out: Mean AUC0-inf in Systemic Samples) was 837 ng·h/mL. For the same compound, the AUC(0-inf) ([1]; plasma (systemic, median auricular artery), po, 2.5 mg/kg, Oral 2.5 mg/kg, read-out: Mean AUC0-inf in Systemic Samples) was 402 ng·h/mL, the half-life [1, 3] was 40.8 ± 0.6 min and the MRT [1, 3] was 64.2 ± 1.2 min. For the same compound, the half-life [1, 4] was 44.4 ± 3.6 min, the MRT [1, 4] was 55.2 ± 5.4 min and the half-life [1, 5] was 47.4 ± 5.4 min. The MRT [1, 5] was 55.2 ± 4.8 min, the TMAX ([1]; plasma, 2.5 mg/kg, IC 2.5 mg/kg) was 15 min and the clearance ([1]; plasma, 2.5 mg/kg, IC) was 36.8 mL/min/kg. It also gave a Vd ([1]; plasma, 2.5 mg/kg, IC) of 2.16 L/kg, a TMAX [1, 6] of 8.4 ± 5.76 min and a CMAX [1, 6] of 736 ± 95.6 ng/mL. It also gave a clearance ([1]; plasma, 2.5 mg/kg, LSI) of 37.2 mL/min/kg, a Vd ([1]; plasma, 2.5 mg/kg, LSI) of 2.37 L/kg and a bioavailability ([1]; plasma, 2.5 mg/kg, PV 2.5 mg/kg, read-out: systemic Bioavailability, Mean) of 67.9%. The TMAX [1, 7] was 4.98 min, the CMAX [1, 7] was 1220 ± 280 ng/mL and the bioavailability ([1]; plasma, 2.5 mg/kg, USI 2.5 mg/kg, read-out: systemic Bioavailability, Mean) was 73.9%. It also gave a clearance ([1]; plasma, 2.5 mg/kg, USI) of 37.2 mL/min/kg, a Vd ([1]; plasma, 2.5 mg/kg, USI) of 2.51 L/kg and a half-life [1, 8] of 43.2 ± 4.2 min. It also gave an MRT [1, 8] of 55.8 ± 6.6 min, a half-life [1, 9] of 43.8 ± 1.8 min and an MRT [1, 9] of 50.4 ± 1.8 min. It also gave an AUC(0-inf) ([1]; plasma, iv, 0.75 mg/kg, IV 0.75 mg/kg, read-out: IV AUC0-inf, Mean) of 340 ng·h/mL, an AUC(0-inf) ([1]; plasma, iv, 0.75 mg/kg, IV 0.75 mg/kg, read-out: IV AUC0-inf, individual) of 323 ng·h/mL and a half-life [1, 10] of 45 ± 2.4 min. The MRT [1, 10] was 49.8 ± 1.8 min, the AUC(0-inf) ([1]; plasma, iv, 1.5 mg/kg, IV 1.5 mg/kg, read-out: IV AUC0-inf, Mean) was 574 ng·h/mL and the AUC(0-inf) ([1]; plasma, iv, 1.5 mg/kg, IV 1.5 mg/kg, read-out: IV AUC0-inf, individual) was 557 ng·h/mL. For the same compound, the half-life [1, 11] was 35.4 ± 1.2 min, the MRT [1, 11] was 49.8 ± 9 min and the AUC(0-inf) ([1]; plasma, iv, 2.5 mg/kg, IV 2.5 mg/kg, read-out: IV AUC0-inf, Mean) was 1060 ng·h/mL. For the same compound, the AUC(0-inf) ([1]; plasma, iv, 2.5 mg/kg, IV 2.5 mg/kg, read-out: IV AUC0-inf, individual) was 1170 ng·h/mL, the clearance ([1]; plasma, iv, IV (overall)) was 40 mL/min/kg and the Vd ([1]; plasma, iv, IV (overall)) was 2.41 ± 0.41 L/kg. It also gave a bioavailability ([1]; plasma, other: portal vein (PV) port, 2.5 mg/kg, PV 2.5 mg/kg, read-out: systemic Bioavailability, Mean) of 68%, a half-life [1, 12] of 46.2 ± 4.2 min and an MRT [1, 12] of 48 ± 3.6 min. For the same compound, the clearance [1, 13] was 55.2 mL/min/kg, the Vd [1, 13] was 3.63 L/kg and the bioavailability ([1]; plasma, other: upper small intestine (USI) port, 2.5 mg/kg, USI 2.5 mg/kg, read-out: systemic Bioavailability, Mean) was 74%. The half-life [1, 14] was 41.4 ± 15.6 min, the MRT [1, 14] was 72.6 ± 24 min and the TMAX [1, 15] was 25.2 ± 8.4 min. It also gave a CMAX [1, 15] of 335 ± 134 ng/mL, a bioavailability ([1]; plasma, po, 2.5 mg/kg, PO 2.5 mg/kg, read-out: systemic Bioavailability, Mean) of 35.5% and an AUC(0-inf) ([1]; portal vein plasma, 2.5 mg/kg, LSI 2.5 mg/kg, read-out: Mean AUC0-inf in Portal Vein) of 586 ng·h/mL. For the same compound, the AUC(0-inf) ([1]; portal vein plasma, 2.5 mg/kg, USI 2.5 mg/kg, read-out: Mean AUC0-inf in Portal Vein) was 833 ng·h/mL, the AUC(0-inf) ([1]; portal vein plasma, po, 2.5 mg/kg, Oral 2.5 mg/kg, read-out: Mean AUC0-inf in Portal Vein) was 397 ng·h/mL and the AUC(0-inf) ([1]; systemic plasma (median auricular artery), 2.5 mg/kg, LSI 2.5 mg/kg, read-out: Mean AUC0-inf in Systemic Samples) was 571 ng·h/mL. The “moisture at equilibrium of monohydrate formed on exposure to humidity” value [2] was 7%, the solubility in alcohol [2] was “highly soluble” and the solid remains stable ([2]; 15-30° C., not exposed to humidity) was 36 months. For the same compound, the “degradation rate in aqueous environment” value ([2]; pH 7 and 2-8° C.) was “about 0.7 %/hr”, the “degradation rate in aqueous environment” value ([2]; pH 7 and 25° C.) was 2.5 %/hr and the solubility ([2]; water) was roughly 25 mg/mL (≈ 110 mM).
